Data reported in patent US20120115845A1, “THERAPEUTIC AGENTS” (priority 2007, published 2012).
pEC50, pIC50: −log10 of the molar value.

What was measured:
[1] = target: T1, human GHS receptor (Homo sapiens, UniProt Q92847); experiment: h bind IC50 (binding assay, Table 1); details: human receptor; Table 1
[2] = target: T1, human GHS receptor; experiment: Ghrelin IP1 agonist assay (IP1 HTRF); format: cell-based; design: expressed in transfected cells; host or cells: HEK293s; details: for Emax: 2 h, agonist effect as % maximal effect of GHRP-6 (5 μM), read-out: h IP1 ag %; for pEC50: HEK293s cells stably expressing human GHS receptor, 2 hours at 37° C., read-out: h IP1 ag EC50
Method: In HEK293s cells stably expressing human GHS receptor (In-house), agonist activity was assessed by measuring intracellular myo-Inositol 1 phosphate (IP1) using the IP1 HTRF assay kit (Cisbio International).
Cells were harvested using accutase (Sigma), spun down at 1000 rpm for 5 minutes and resuspended in stimulation buffer (as above) containing 0.02% fatty acid free BSA at a density of 1.43E6cells/ml.
Agonist effect of the compound was expressed as % maximal effect of GHRP-6 (5 μM: Bachem). Sigmoidal curves were fitted by Origin 7.5 Client and EC50 values determined.

T1 sequence (Q92847 whole entry): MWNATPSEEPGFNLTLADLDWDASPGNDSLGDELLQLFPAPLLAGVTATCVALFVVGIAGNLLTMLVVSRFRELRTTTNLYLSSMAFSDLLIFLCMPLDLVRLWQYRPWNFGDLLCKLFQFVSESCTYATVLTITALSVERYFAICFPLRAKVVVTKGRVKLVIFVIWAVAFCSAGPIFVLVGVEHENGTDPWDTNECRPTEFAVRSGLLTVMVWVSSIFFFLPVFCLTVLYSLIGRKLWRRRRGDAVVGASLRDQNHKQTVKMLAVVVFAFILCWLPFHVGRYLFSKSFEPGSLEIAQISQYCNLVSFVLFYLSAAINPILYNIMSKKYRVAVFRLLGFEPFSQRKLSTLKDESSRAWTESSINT

pIC50 [1] | Emax [2] [%] | pEC50 [2] | Compound
7.41 | 10.4 | ≤ 4.70 | CN(C)[C@@H]1CCN(c2ccc(Cl)c(C(=O)NC(=O)Nc3nc4ccc(S(C)(=O)=O)cc4s3)c2)C1 [Example 233, (R)-2-chloro-5-(3-(dimethylamino)pyrrolidin-1-yl)-N-(6-(methylsulfonyl)benzo[d]thiazol-2-ylcarbamoyl) benzamide]
7.60 | 54 | 8.19 | CC1CN(CCS(=O)(=O)c2ccc3nc(NC(=O)NC(=O)c4ccccc4Cl)sc3c2)CC(C)N1 (stereo not drawn) [Example 24, 2-Chloro-N-[[6-[2-(3,5-dimethylpiperazin-1-yl)ethylsulfonyl]benzothiazol-2-yl]carbamoyl]benzamide]
8.43 | 0 | ≤ 4.60 | CS(=O)(=O)c1ccc2nc(NC(=O)NC(=O)c3cc(C4CCCC4)ccc3Cl)sc2c1 [Example 52, 2-Chloro-5-cyclopentyl-N-(6-(methylsulfonyl)benzothiazol-2-ylcarbamoyl)benzamide]
8.89 | 0.32 | ≤ 4.60 | CS(=O)(=O)c1ccc2nc(NC(=O)NC(=O)c3cc(N4CCCC4)ccc3Cl)sc2c1 [Example 48, 2-Chloro-5-(1-pyrrolidinyl)-N-(6-(methylsulfonyl)benzothiazol-2-ylcarbamoyl)benzamide]
7.83 | 29.4 | 8.21 | COCCNCCCS(=O)(=O)c1ccc2nc(NC(=O)NC(=O)c3ccccc3Cl)sc2c1 [Example 203, 2-Chloro-N-[[6-[3-(2-methoxyethylamino)propylsulfonyl]benzothiazol-2-yl]carbamoyl]benzamide]
6.79 | 0 | < 4.60 | CS(=O)(=O)c1ccc2nc(NC(=O)NC(=O)c3cc(-c4ncccn4)ccc3Cl)sc2c1 [Example 57, 2-Chloro-N-(6-(methylsulfonyl)benzothiazol-2-ylcarbamoyl)-5-(pyrimidin-2-yl)benzamide]
8.05 | 39.6 | 7.60 | O=C(NC(=O)c1ccccc1Cl)Nc1nc2ccc(S(=O)(=O)C3CCN(CC4CC4)CC3)cc2s1 [Example 182, 2-Chloro-N-[[6-[[1-(cyclopropylmethyl)-4-piperidyl]sulfonyl]benzothiazol-2-yl]carbamoyl]benzamide]
7.50 | 12.6 | 7.25 | CN(C)S(=O)(=O)c1ccc2nc(NC(=O)NC(=O)c3ccccc3Cl)sc2c1 [Example 232, 2-chloro-N-[[6-(dimethylsulfamoyl)-1,3-benzothiazol-2-yl]carbamoyl] benzamide]
8.92 | 36.2 | 8.16 | CN1CCCN(CCCS(=O)(=O)c2ccc3nc(NC(=O)NC(=O)c4ccccc4Cl)sc3c2)CC1 [Example 204, 2-Chloro-N-[[6-[3-(4-methyl-1,4-diazepan-1-yl)propylsulfonyl]benzothiazol-2-yl]carbamoyl]benzamide]
6.18 | 15.5 | 5.43 | CSc1ccccc1C(=O)NC(=O)Nc1nc2ccc(S(C)(=O)=O)cc2s1 [Example 132, 2-Methylsulfanyl-N-[(6-methylsulfonylbenzothiazol-2-yl)carbamoyl]benzamide]
7.11 | 58.5 | 8.02 | CNCCS(=O)(=O)c1ccc2nc(NC(=O)NC(=O)c3ccccc3Cl)sc2c1 [Example 4, 2-Chloro-N-[[6-(2-methylaminoethylsulfonyl)benzothiazol-2-yl]carbamoyl]benzamide]

The remaining lines, values behind:

Compound | pIC50 [1] | Emax [2] [%] | pEC50 [2]
O=C(NC(=O)c1cc(-n2cccc2)ccc1Cl)Nc1nc2ccc(S(=O)(=O)CCN3CCNCC3)cc2s1 [Example 79, 2-Chloro-N-[[6-(2-piperazin-1-ylethylsulfonyl)benzothiazol-2-yl]carbamoyl]-5-pyrrol-1-yl-benzamide] | 9.22 | 1.95 | ≤ 4.60
Cc1ccn(-c2ccc(C(=O)NC(=O)Nc3nc4ccc(S(=O)(=O)CCCN5CCN(C)CC5)cc4s3)c(Cl)c2)n1 [Example 212, 2-Chloro-N-[[6-[3-(4-methylpiperazin-1-yl)propylsulfonyl]benzothiazol-2-yl]carbamoyl]-4-(3-methylpyrazol-1-yl)benzamide] | 9.30 | 27.6 | 8.69
CC(C)(C)OC(=O)N1CCN(CCCS(=O)(=O)c2ccc3nc(NC(=O)NC(=O)c4ccccc4Cl)sc3c2)CC1 [Example 205, tert-Butyl 4-[3-[2-[(2-chlorobenzoyl)carbamoylamino]benzothiazol-6-yl]sulfonylpropyl]piperazine-1-carboxylate] | 8.28 | 39.5 | 8.70
CCN(CC)CCCS(=O)(=O)c1ccc2nc(NC(=O)NC(=O)c3cc(N4CCOCC4)ccc3Cl)sc2c1 [Example 97, 2-Chloro-N-(6-(3-(diethylamino)propylsulfonyl)benzothiazol-2-ylcarbamoyl)-5-morpholinobenzamide] | 8.38 | 8.13 | 8.37
CC(C)(CN1CCCC1)S(=O)(=O)c1ccc2nc(NC(=O)NC(=O)c3cc(N4CCOCC4)ccc3Cl)sc2c1 [Example 245, 2-chloro-N-(6-(2-methyl-1-(pyrrolidin-1-yl)propan-2-ylsulfonyl)benzo[d]thiazol-2-ylcarbamoyl)-5-morpholino-benzamide] | 8.19 | 0 | ≤ 4.70
CCN(CC)CCCS(=O)(=O)c1ccc2nc(NC(=O)NC(=O)c3cc(-n4cccc4)ccc3Cl)sc2c1 [Example 71, 2-Chloro-N-[[6-(3-diethylaminopropylsulfonyl)benzothiazol-2-yl]carbamoyl]-5-pyrrol-1-yl-benzamide] | 9.40 | 0.0469 | ≤ 4.60
COc1cc(Cl)c(C(=O)NC(=O)Nc2nc3ccc(S(=O)(=O)CCCN4CCN(C)CC4)cc3s2)cc1-n1cccn1 [Example 242, 2-chloro-4-methoxy-N-(6-(3-(4-methylpiperazin-1-yl)propylsulfonyl)benzo[d]thiazol-2-ylcarbamoyl) 5-(1H-pyrazol-1-yl)benzamide] | 9.21 | 9.32 | ≤ 4.70
CN1CCC(S(=O)(=O)c2ccc3nc(NC(=O)NC(=O)c4cc(-n5cccn5)ccc4Cl)sc3c2)CC1 [Example 100, 2-Chloro-N-(6-(1-methylpiperidin-4-ylsulfonyl)benzothiazol-2-ylcarbamoyl)-5-(1H-pyrazol-1-yl)benzamide] | 7.56 | 0 | ≤ 4.70
CC(C)NCCS(=O)(=O)c1ccc2nc(NC(=O)NC(=O)c3cc(-n4cccc4)ccc3Br)sc2c1 [Example 83, 2-Bromo-N-(6-(2-(isopropylamino)ethylsulfonyl)benzothiazol-2-ylcarbamoyl)-5-(1H-pyrrol-1-yl)benzamide] | 8.89 | 0 | ≤ 4.60
COc1cc(Cl)c(C(=O)NC(=O)Nc2nc3ccc(S(=O)(=O)C4CCN(C(=O)OC(C)(C)C)CC4)cc3s2)cc1-n1cccn1 [Example 262, tert-butyl4-(2-(3-(2-chloro-4-methoxy-5-(1H-pyrazol-1-yl)benzoyl)ureido)benzo[d]thiazol-6-ylsulfonyl) piperidine-1-carboxylate] | 7.46 | 0 | ≤ 4.70
